Patent US12077503B2, “Substituted cyclic amides and their use as herbicides” (FMC CORPORATION, priority 2015, dated 2024)
Read-outs that look alike come from different tables or passages of the source.

Columns and labels:
Assay in all cases: Test A preemergence
Type in all cases: in vivo
[1] = tested on: ryegrass, Italian (Italian ryegrass, Lolium multiflorum); settings: Lolium multiflorum, pre-emergence, 240 h; for pest or weed control at 125 g/ha: 125 g ai/ha; for pest or weed control at 31 g/ha: 31 g ai/ha, 0 to 100 scale (0 no effect, 100 complete control); for pest or weed control at 500 g/ha: 500 g ai/ha
Method in brief: (§1)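 In a loam soil and sand blend, planted seeds got a preemergence directed soil spray, and young plants at the one- to two-leaf stage, 2–10 cm high, got a postemergence application; ~10 d greenhouse hold; injury rated visually, 0 = none, 100 = complete control.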

[2] = tested on: ragweed (common ragweed, Ambrosia elatior); settings: Ambrosia artemisiifolia, pre-emergence, 240 h; for pest or weed control at 125 g/ha: 125 g ai/ha; for pest or weed control at 500 g/ha: 500 g ai/ha; for pest or weed control at 31 g/ha: 31 g ai/ha, 0 to 100 scale (0 no effect, 100 complete control)
Method in brief: as §1

[3] = tested on: Kochia (Kochia scoparia); settings: Bassia scoparia, pre-emergence, 240 h; for pest or weed control at 125 g/ha: 125 g ai/ha; for pest or weed control at 500 g/ha: 500 g ai/ha; for pest or weed control at 31 g/ha: 31 g ai/ha, 0 to 100 scale (0 no effect, 100 complete control)
Method in brief: as §1

[4] = tested on: giant foxtail (Setaria faberii); settings: Setaria faberi, pre-emergence, 240 h; for pest or weed control at 125 g/ha: 125 g ai/ha; for pest or weed control at 500 g/ha: 500 g ai/ha; for pest or weed control at 31 g/ha: 31 g ai/ha, 0 to 100 scale (0 no effect, 100 complete control)
Method in brief: as §1

[5] = tested on: barnyardgrass (Echinochloa crus-galli); settings: Echinochloa crus-galli, pre-emergence, 240 h; for pest or weed control at 125 g/ha: 125 g ai/ha; for pest or weed control at 500 g/ha: 500 g ai/ha; for pest or weed control at 31 g/ha: 31 g ai/ha, 0 to 100 scale (0 no effect, 100 complete control)
Method in brief: as §1

[6] = tested on: pigweed (Amaranthus retroflexus); settings: Amaranthus retroflexus, pre-emergence, 240 h; for pest or weed control at 125 g/ha: 125 g ai/ha; for pest or weed control at 500 g/ha: 500 g ai/ha; for pest or weed control at 31 g/ha: 31 g ai/ha, 0 to 100 scale (0 no effect, 100 complete control)
[7] = preemergence, visual rating after approx. 10 d, 0 to 100 scale where 0 is no effect and 100 is complete control, read-out: Plant response rating, Ryegrass, Italian
[8] = preemergence, visual rating after approx. 10 d, 0 to 100 scale where 0 is no effect and 100 is complete control, read-out: Plant response rating, Ragweed
[9] = preemergence, 0 to 100 scale, 0 = no effect, 100 = complete control, read-out: Plant response rating, Ragweed
[10] = preemergence, visual rating after approx. 10 d, 0 to 100 scale where 0 is no effect and 100 is complete control, read-out: Plant response rating, Kochia
[11] = preemergence, 0 to 100 scale, 0 = no effect, 100 = complete control, read-out: Plant response rating, Kochia
[12] = preemergence, visual rating after approx. 10 d, 0 to 100 scale where 0 is no effect and 100 is complete control, read-out: Plant response rating, Foxtail, Giant
[13] = preemergence, 0 to 100 scale, 0 = no effect, 100 = complete control, read-out: Plant response rating, Foxtail, Giant
[14] = preemergence, visual rating after approx. 10 d, 0 to 100 scale where 0 is no effect and 100 is complete control, read-out: Plant response rating, Barnyardgrass
[15] = preemergence, 0 to 100 scale, 0 = no effect, 100 = complete control, read-out: Plant response rating, Barnyardgrass
[16] = preemergence, visual rating after approx. 10 d, 0 to 100 scale where 0 is no effect and 100 is complete control, read-out: Plant response rating, Pigweed
[17] = preemergence, 0 to 100 scale, 0 = no effect, 100 = complete control, read-out: Plant response rating, Pigweed
[18] = Preemergence, read-out: Plant response rating, Ryegrass, Italian
[19] = Preemergence, read-out: Plant response rating, Ragweed
[20] = Preemergence, read-out: Plant response rating, Kochia
[21] = Preemergence, read-out: Plant response rating, Foxtail, Giant
[22] = Preemergence, read-out: Plant response rating, Barnyardgrass
[23] = Preemergence, read-out: Plant response rating, Pigweed
[24] = preemergence, 0 to 100 scale, 0 = no effect, 100 = complete control, read-out: Plant response rating, Ryegrass, Italian

| Compound | pest or weed control at 125 g/ha [1, 7] | pest or weed control at 125 g/ha [2, 8] | pest or weed control at 500 g/ha [2, 9] | pest or weed control at 125 g/ha [3, 10] | pest or weed control at 500 g/ha [3, 11] | pest or weed control at 125 g/ha [4, 12] | pest or weed control at 500 g/ha [4, 13] | pest or weed control at 125 g/ha [5, 14] | pest or weed control at 500 g/ha [5, 15] | pest or weed control at 125 g/ha [6, 16] | pest or weed control at 500 g/ha [6, 17] | pest or weed control at 500 g/ha [1, 24] | further results |
| --- | --- | --- | --- | --- | --- | --- | --- | --- | --- | --- | --- | --- | --- |
| Cc1ccc(NC(=O)[C@H]2C(=O)N(C)C[C@@H]2c2cc(F)cc(F)c2)c(F)c1 [Compound 760] | 0% | 0% | 0% | 0% | 60% | 100% | 100% | 100% | 100% | 0% | 0% | – | – |
| Cc1cc([C@H]2CN(C)C(=O)[C@@H]2C(=O)Nc2ccccc2F)cc(C)c1C [Compound 797] | 50% | 0% | – | 20% | – | 90% | – | 90% | – | 20% | – | – | pest or weed control at 31 g/ha [1, 18]: 0%; pest or weed control at 31 g/ha [2, 19]: 0%; pest or weed control at 31 g/ha [3, 20]: 0%; pest or weed control at 31 g/ha [4, 21]: 90%; pest or weed control at 31 g/ha [5, 22]: 80%; pest or weed control at 31 g/ha [6, 23]: 0% |
| COc1cc([C@H]2CN(C)C(=O)[C@@H]2C(=O)Nc2ccccc2F)ccc1F [Compound 1298] | – | – | – | – | – | – | – | – | – | – | – | – | pest or weed control at 125 g/ha ([1]; preemergence, visual injury rating, 0 to 100 scale where 0 is no effect and 100 is complete control, approximately 10 d, read-out: Ryegrass, Italian plant response rating): 0%; pest or weed control at 500 g/ha ([1]; preemergence, 0 to 100 scale where 0 is no effect and 100 is complete control, read-out: Ryegrass, Italian plant response rating): 0%; pest or weed control at 125 g/ha ([2]; preemergence, visual injury rating, 0 to 100 scale where 0 is no effect and 100 is complete control, approximately 10 d, read-out: Ragweed plant response rating): 0%; pest or weed control at 500 g/ha ([2]; preemergence, 0 to 100 scale where 0 is no effect and 100 is complete control, read-out: Ragweed plant response rating): 20%; pest or weed control at 125 g/ha ([3]; preemergence, visual injury rating, 0 to 100 scale where 0 is no effect and 100 is complete control, approximately 10 d, read-out: Kochia plant response rating): 0%; pest or weed control at 500 g/ha ([3]; preemergence, 0 to 100 scale where 0 is no effect and 100 is complete control, read-out: Kochia plant response rating): 80%; pest or weed control at 125 g/ha ([4]; preemergence, visual injury rating, 0 to 100 scale where 0 is no effect and 100 is complete control, approximately 10 d, read-out: Foxtail, Giant plant response rating): 90%; pest or weed control at 500 g/ha ([4]; preemergence, 0 to 100 scale where 0 is no effect and 100 is complete control, read-out: Foxtail, Giant plant response rating): 90%; pest or weed control at 125 g/ha ([5]; preemergence, visual injury rating, 0 to 100 scale where 0 is no effect and 100 is complete control, approximately 10 d, read-out: Barnyardgrass plant response rating): 80%; pest or weed control at 500 g/ha ([5]; preemergence, 0 to 100 scale where 0 is no effect and 100 is complete control, read-out: Barnyardgrass plant response rating): 90%; pest or weed control at 125 g/ha ([6]; preemergence, visual injury rating, 0 to 100 scale where 0 is no effect and 100 is complete control, approximately 10 d, read-out: Pigweed plant response rating): 0%; pest or weed control at 500 g/ha ([6]; preemergence, 0 to 100 scale where 0 is no effect and 100 is complete control, read-out: Pigweed plant response rating): 0% |
| CN1C[C@H](c2ccc(F)c(OC(F)(F)C(F)F)c2)[C@@H](C(=O)Nc2ccccc2F)C1=O [Compound 740] | 60% | 40% | 50% | 80% | 90% | 100% | 100% | 90% | 90% | 70% | 80% | 80% | – |
| O=C1NC[C@H](c2ccc(C3CC3)cc2)[C@H]1C(=O)Nc1ccccc1F [Compound 727] | 0% | 0% | 0% | 0% | 0% | 80% | 90% | 70% | 90% | 0% | 0% | 0% | – |
| CN1C[C@H](c2cccc(C(F)(F)F)c2)[C@@H](C(=O)Nc2ccccc2C2CC2)C1=O [Compound 749] | 0% | 0% | 0% | 0% | 20% | 50% | 90% | 0% | 20% | 0% | 0% | 20% | – |
| CN1C[C@H](c2ccc(C(F)(F)F)c(Br)c2)[C@@H](C(=O)Nc2cccc(F)c2F)C1=O [Compound 804] | 50% | 0% | – | 20% | – | 80% | – | 90% | – | 60% | – | – | pest or weed control at 31 g/ha [1, 18]: 40%; pest or weed control at 31 g/ha [2, 19]: 0%; pest or weed control at 31 g/ha [3, 20]: 0%; pest or weed control at 31 g/ha [4, 21]: 70%; pest or weed control at 31 g/ha [5, 22]: 70%; pest or weed control at 31 g/ha [6, 23]: 0% |
| CN1C[C@H](c2ccc(C#N)cc2)[C@@H](C(=O)Nc2cccc(F)c2F)C1=O (racemic) [Compound 775] | 0% | 50% | – | 30% | – | 80% | – | 60% | – | 30% | – | – | pest or weed control at 500 g/ha ([1]; Preemergence, visual injury vs untreated controls after approximately 10 d, read-out: Ryegrass, Italian plant response rating (0 to 100 scale where 0 is no effect and 100 is complete control)): 0%; pest or weed control at 500 g/ha ([2]; Preemergence, visual injury vs untreated controls after approximately 10 d, read-out: Ragweed plant response rating (0 to 100 scale where 0 is no effect and 100 is complete control)): 80%; pest or weed control at 500 g/ha ([3]; Preemergence, visual injury vs untreated controls after approximately 10 d, read-out: Kochia plant response rating (0 to 100 scale where 0 is no effect and 100 is complete control)): 80%; pest or weed control at 500 g/ha ([4]; Preemergence, visual injury vs untreated controls after approximately 10 d, read-out: Foxtail, Giant plant response rating (0 to 100 scale where 0 is no effect and 100 is complete control)): 100%; pest or weed control at 500 g/ha ([5]; Preemergence, visual injury vs untreated controls after approximately 10 d, read-out: Barnyardgrass plant response rating (0 to 100 scale where 0 is no effect and 100 is complete control)): 100%; pest or weed control at 500 g/ha ([6]; Preemergence, visual injury vs untreated controls after approximately 10 d, read-out: Pigweed plant response rating (0 to 100 scale where 0 is no effect and 100 is complete control)): 70% |
